The values below come from paper PMC6476888, “Design and synthesis of anticancer 1-hydroxynaphthalene-2-carboxanilides with a p53 independent mechanism of action” (Scientific Reports, 2019).

Like-named read-outs stand apart in the source and are kept apart here. Bounds are passed on as bounds.

Assay [1] relates to HCT116^+/+. The assay can be described thus: Antiproliferative assay (MTS, 72 h) on HCT116 wild type. In kind it is cell-based, human. Particulars: MTS, 72 h incubation, read-out: Activity IC50 HCT116^+/+. The procedure: (§1) All of the synthesized compounds were tested for their antiproliferative activity against human colon cancer (Table 1). We used both the wild-type and p53-negative cell lines (HCT116^+/+ and HCT116^−/−, respectively). Mutations in the TP53 gene are present in more than 50% of all cancers and often specifically correspond to a difficult therapy, resistance or a bad prognosis[60]–[63]. The active compounds were additionally tested for their cytotoxicity against normal human fibroblasts. We used 5-fluorouracil (5-FLU), doxorubicin (DOX) and CP-31398 as the standards. 5-FLU is one of the first antimetabolites that was dedicated for cancer treatment and is still used for a wide range of cancers including colon carcinoma. Doxorubicin is a DNA topoisomerase II poison with a high intercalating potency, which is able to induce apoptosis through the p53 pathway. Although DOX has been described as being ineffective in some p53 mutants, its level of activity against the p53 null lines is similar. CP-31398, on the other hand, is an experimental drug in the clinical phase and its mechanism of action is through the reactivation some of p53 mutants. Its activity against the p53 null cell lines is greatly diminished and is actually lower than its cytotoxicity.
(§2) The human colon cancer cell line HCT116 wild type was obtained from ATCC and the normal human fibroblast cell lines NHDF were obtained from PromoCell. The human colon cancer cell line HCT116 with a p53 deletion (p53^−/−) was kindly provided by Prof. M. Rusin from the Maria Sklodowska-Curie Memorial Cancer Centre and Institute of Oncology in Gliwice, Poland[89]. The cells were grown as monolayer cultures in Dulbecco’s modified Eagle’s medium with the antibiotic gentamicin (200 μL/100 mL medium) in 75 cm^2 flasks (Nunc). The DMEM for the HCT116 were supplemented with 12% heat-inactivated fetal bovine serum (Sigma-Aldrich, St. Louis, MO, USA) and for NHDF with 15% non-inactivated fetal bovine serum (Sigma Aldrich, St. Louis, MO, USA). The cells were cultured under standard conditions at 37 °C in a humidified atmosphere at 5% CO2.
(§3) The cells were seeded in 96-well plates (Nunc) at a density of 5,000 cells/well (HCT116) and 4,000 cells/well (NHDF) and incubated at 37 °C for 24 h. The assay was performed following a 72 h incubation with varying concentrations of the compounds that were being tested. Then, 20 µL of CellTiter 96® AQueous One Solution-MTS (Promega) was added to each well (with 100 µL DMEM without phenol red) and incubated for 1 h at 37 °C. The optical densities of the samples were analyzed at 490 nm using a Synergy 4 multi-plate reader (BioTek, Winooski, VT, USA). The results are expressed as the percentage of the control and were calculated as the inhibitory concentration (IC50) values (using a GraphPad Prism 7). The IC50 parameter was defined as the compound concentration that was necessary to reduce the proliferation of cells to 50% of the untreated control. Each individual compound was tested in triplicate in a single experiment with each experiment being repeated three or four times.

Assay [2] deals with HCT116^−/−. The experiment in a line: Antiproliferative assay (MTS, 72 h) on HCT116 with p53 deletion. It counts as cell-based, human. Particulars: for IC50: MTS, 72 h incubation. Here is the method: as §1, §2, §3
In assay [3] the test system is NHDF. The assay can be described thus: Cytotoxicity (MTS, 72 h) against normal human fibroblasts. It counts as cell-based. Particulars: MTS, 72 h incubation. Here is the method:
as §1, §2, §3

`COc1ccccc1NC(=O)c1ccc2ccccc2c1O` [2a]: the IC50 in assay [1] and in assay [2] was more than 25 µM in each case.
In the case of `COc1cccc(NC(=O)c2ccc3ccccc3c2O)c1` [2b], the IC50 in assay [1] is 8.51 ± 1.69 µM; in assay [2], 24.1 ± 3.54 µM; in assay [3], more than 25 µM.
As for `COc1ccc(NC(=O)c2ccc3ccccc3c2O)cc1` [2c], the IC50 in assay [1] and in assay [2] was more than 25 µM throughout.
`COc1cc(NC(=O)c2ccc3ccccc3c2O)cc(OC)c1` [2e, N-(3,5-dimethoxyphenyl)−1-hydroxynaphthalene-2-carboxamide]: the IC50 is more than 25 µM in assay [1] (Homo sapiens, HCT-116); more than 25 µM in assay [2] (Homo sapiens, HCT-116); more than 25 µM in assay [3] (Homo sapiens, NHDF).
On to `COc1cc(NC(=O)c2ccc3ccccc3c2O)cc(OC)c1OC` [2f], for which the IC50 was 6.54 ± 2.42 µM in assay [1], 8.78 ± 2.13 µM in assay [2] and more than 25 µM in assay [3].
Consider `COc1ccc(C(F)(F)F)cc1NC(=O)c1ccc2ccccc2c1O` [2i], for which the IC50 is more than 25 µM in assay [1] (Homo sapiens, HCT-116) and more than 25 µM in assay [2] (Homo sapiens, HCT-116).
As for `Cc1ccccc1NC(=O)c1ccc2ccccc2c1O` [3a], the IC50 in assay [1] and in assay [2] was more than 25 µM each time.
Turning to `Cc1cccc(NC(=O)c2ccc3ccccc3c2O)c1` [3b], the IC50 in assay [1] and in assay [2] was more than 25 µM in each case.
Turning to `Cc1ccc(NC(=O)c2ccc3ccccc3c2O)cc1` [3c], the IC50 in assay [1] and in assay [2] was more than 25 µM in each case.
`Cc1ccc(C)c(NC(=O)c2ccc3ccccc3c2O)c1` [3d]: the IC50 in assay [1] (Homo sapiens, HCT-116) is more than 25 µM; in assay [2] (Homo sapiens, HCT-116) it was more than 25 µM.
With `Cc1cccc(C)c1NC(=O)c1ccc2ccccc2c1O` [3e], the IC50 is more than 25 µM in assay [1] (Homo sapiens, HCT-116) and more than 25 µM in assay [2] (Homo sapiens, HCT-116).
As for `Cc1cc(C)cc(NC(=O)c2ccc3ccccc3c2O)c1` [3f], the IC50 in assay [1] (Homo sapiens, HCT-116) is 19.3 ± 1.68 µM; in assay [2] (Homo sapiens, HCT-116) it was more than 25 µM; in assay [3] (Homo sapiens, NHDF) it was more than 25 µM.
On to `O=C(Nc1ccccc1F)c1ccc2ccccc2c1O` [4a], for which the IC50 in assay [1] and in assay [2] was more than 25 µM throughout.
Consider `O=C(Nc1cccc(F)c1)c1ccc2ccccc2c1O` [4b], for which the IC50 was 1.88 ± 0.33 µM in assay [1], 9.02 ± 1.91 µM in assay [2] and more than 25 µM in assay [3].
As for `O=C(Nc1ccc(F)cc1)c1ccc2ccccc2c1O` [4c], the values for the IC50 in assay [1], in assay [2] and in assay [3] were 2.49 ± 0.61 µM, 5.01 ± 1.12 µM and more than 25 µM, respectively.
For `O=C(Nc1ccc(C(F)(F)F)c(F)c1)c1ccc2ccccc2c1O` [4w], the IC50 in assay [1] (Homo sapiens, HCT-116) turned out to be 3.25 ± 0.94 µM; in assay [2] (Homo sapiens, HCT-116), 4.82 ± 1.46 µM; in assay [3] (Homo sapiens, NHDF), 22.8 ± 2.69 µM.
In the case of `O=C(Nc1c(F)c(F)c(Br)c(F)c1F)c1ccc2ccccc2c1O` [4y], the results for the IC50 in assay [1], in assay [2] and in assay [3] were 2.41 ± 0.69 µM, 5.68 ± 1.37 µM and 7.87 ± 1.37 µM, respectively.
As to `O=c1[nH]cc(F)c(=O)[nH]1` [5-FLU, 5-fluorouracil, reference compound], the IC50 was 4.42 ± 0.7 µM in assay [1] (Homo sapiens, HCT-116); 4.69 ± 0.31 µM in assay [2] (Homo sapiens, HCT-116); more than 25 µM in assay [3] (Homo sapiens, NHDF).
For the compound `O=C(Nc1ccccc1Cl)c1ccc2ccccc2c1O` [5a], the IC50 was 16.5 ± 2.25 µM in assay [1], 22.4 ± 3.58 µM in assay [2] and more than 25 µM in assay [3].
For `O=C(Nc1cccc(Cl)c1)c1ccc2ccccc2c1O` [5b], in that order: 4.7 ± 0.4 µM, 1.78 ± 0.32 µM and more than 25 µM.
For `O=C(Nc1ccc(Cl)cc1)c1ccc2ccccc2c1O` [5c], in that order: 9.62 ± 0.75 µM, 9.41 ± 0.78 µM and more than 25 µM.
As for `O=C(Nc1cccc(Cl)c1Cl)c1ccc2ccccc2c1O` [5d], the IC50 in assay [1] was 4.66 ± 0.58 µM; in assay [2], 8.25 ± 0.64 µM; in assay [3], more than 25 µM.
In the case of `O=C(Nc1ccc(Cl)cc1Cl)c1ccc2ccccc2c1O` [5e], the results for the IC50 in assay [1], in assay [2] and in assay [3] were 1.95 ± 0.5 µM, 6.06 ± 1.13 µM and more than 25 µM, respectively.
For `O=C(Nc1cc(Cl)ccc1Cl)c1ccc2ccccc2c1O` [5f], the IC50 in assay [1] was 7.45 ± 0.85 µM; in assay [2] it was 7.19 ± 1.15 µM; in assay [3] it was more than 25 µM.
For the compound `O=C(Nc1c(Cl)cccc1Cl)c1ccc2ccccc2c1O` [5g], the IC50 in assay [1] and in assay [2] was more than 25 µM each time.
For the compound `O=C(Nc1ccc(Cl)c(Cl)c1)c1ccc2ccccc2c1O` [5h], the IC50 is 5.15 ± 0.5 µM in assay [1], 4.74 ± 0.82 µM in assay [2] and more than 25 µM in assay [3]. The “selectivity towards the p53 null cells (HCT116 p53^−/− vs wild type)” value in assay [2] was “not selective”.
In the case of `O=C(Nc1cc(Cl)cc(Cl)c1)c1ccc2ccccc2c1O` [5i], the IC50 in assay [1] worked out at 2.32 ± 0.26 µM; in assay [2] it was 2.89 ± 0.38 µM; in assay [3], 11.5 ± 0.88 µM.
Regarding `O=C(Nc1cc(Cl)c(Cl)cc1Cl)c1ccc2ccccc2c1O` [5j], the IC50 came out at 3 ± 0.24 µM in assay [1], 6.21 ± 0.66 µM in assay [2] and 20.2 ± 0.79 µM in assay [3].
Taken in the same sequence, the figures for `O=C(Nc1c(Cl)cc(Cl)cc1Cl)c1ccc2ccccc2c1O` [5k] were 19.4 ± 1.27 µM, more than 25 µM and more than 25 µM.
`O=C(Nc1cc(Cl)c(Cl)c(Cl)c1)c1ccc2ccccc2c1O` [5l]: the values for the IC50 in assay [1], in assay [2] and in assay [3] were 1.31 ± 0.15 µM, 2.86 ± 0.33 µM and 7.01 ± 0.42 µM, respectively.
For `O=C(Nc1ccc(Br)cc1Cl)c1ccc2ccccc2c1O` [5n], in that order: 2.33 ± 0.95 µM, 9.79 ± 1.95 µM and 23.4 ± 0.86 µM.
Taken in the same sequence, the figures for `O=C(Nc1ccc(C(F)(F)F)cc1Cl)c1ccc2ccccc2c1O` [5o] were 4.92 ± 1.32 µM, 5.41 ± 1.11 µM and 13.2 ± 1.97 µM.
For `O=C(Nc1cc(Br)ccc1Cl)c1ccc2ccccc2c1O` [5q], in that order: 4.18 ± 1.49 µM, 5.4 ± 2.04 µM and more than 25 µM.
For the compound `O=C(Nc1cc(C(F)(F)F)ccc1Cl)c1ccc2ccccc2c1O` [5r], the IC50 in assay [1] (Homo sapiens, HCT-116) was 2.48 ± 0.31 µM; in assay [2] (Homo sapiens, HCT-116), 1.46 ± 0.21 µM; in assay [3] (Homo sapiens, NHDF), 12.4 ± 1.14 µM.
Take `O=C(Nc1ccc(Br)c(Cl)c1)c1ccc2ccccc2c1O` [5t]: the IC50 was 12.3 ± 0.79 µM in assay [1], 12.6 ± 0.69 µM in assay [2] and more than 25 µM in assay [3]. In addition, the “selectivity towards the p53 null cells (HCT116 p53^−/− vs wild type)” value in assay [2] is listed as “not selective”.
In the case of `O=C(Nc1ccccc1Br)c1ccc2ccccc2c1O` [6a], the values for the IC50 in assay [1], in assay [2] and in assay [3] were 22.5 ± 3.62 µM, more than 25 µM and more than 25 µM, respectively.
With `O=C(Nc1cccc(Br)c1)c1ccc2ccccc2c1O` [6b], the IC50 in assay [1] was 9.19 ± 0.98 µM; in assay [2] it was 8.73 ± 0.89 µM; in assay [3], 15.2 ± 2.48 µM.
For `O=C(Nc1ccc(Br)cc1)c1ccc2ccccc2c1O` [6c], the IC50 in assay [1] was 5.25 ± 0.67 µM; in assay [2], 11 ± 0.97 µM; in assay [3], more than 25 µM.
For `O=C(Nc1ccc(Br)cc1Br)c1ccc2ccccc2c1O` [6d], in that order: 4.56 ± 0.43 µM, 4.61 ± 0.72 µM and more than 25 µM.
Consider `O=C(Nc1cc(Br)ccc1Br)c1ccc2ccccc2c1O` [6e], for which the IC50 was 5.24 ± 0.28 µM in assay [1], 5.85 ± 0.61 µM in assay [2] and more than 25 µM in assay [3].
With `O=C(Nc1c(Br)cccc1Br)c1ccc2ccccc2c1O` [6f], the IC50 in assay [1] and in assay [2] was more than 25 µM in each case.
For the compound `O=C(Nc1c(Br)cc(Br)cc1Br)c1ccc2ccccc2c1O` [6g], the IC50 in assay [1] and in assay [2] was more than 25 µM each time.
`O=C(Nc1ccccc1C(F)(F)F)c1ccc2ccccc2c1O` [7a]: the IC50 in assay [1] was more than 25 µM; in assay [2] it was 21.4 ± 1.24 µM.
For `O=C(Nc1ccc(Cl)cc1C(F)(F)F)c1ccc2ccccc2c1O` [7h], the IC50 in assay [1] and in assay [2] was more than 25 µM in each case.
Consider `O=C(Nc1ccc(Br)cc1C(F)(F)F)c1ccc2ccccc2c1O` [7i], for which the IC50 in assay [1] and in assay [2] was more than 25 µM throughout.
For the compound `O=C(Nc1ccc(C(F)(F)F)cc1[N+](=O)[O-])c1ccc2ccccc2c1O` [8d], the IC50 in assay [1] and in assay [2] was more than 25 µM throughout.
`O=C(Nc1ccccc1)c1ccc2ccccc2c1O` [compound 1]: the IC50 was more than 25 µM in assay [1] (Homo sapiens, HCT-116) and more than 25 µM in assay [2] (Homo sapiens, HCT-116).
